In patent US20260062422A1 (Halda Therapeutics OpCo, Inc., priority 2022, published 2026):

Key:
VCaP cells = experiment: Cellular growth inhibition assay for VCaP cells, CellTiter-Glo; assay type: cell-based, human; details: 72 hours treatment, CellTiter-Glo 2.0
Procedure: VCaP cells were purchased from American Type Cell Culture (ATCC Cat #CRL2876) and then seeded on poly-D-lysine coated, black clear-bottom 384-well plates at 5000/well in 25 μL Dulbecco's Modified Eagle Medium (DMEM) supplemented with 10% w/w Fetal bovine serum (FBS) and 1% w/w Pen-Strep. Pen-Strep is a commercially available mixture of penicillin G and streptomycin, which is used in mammalian cell culture media to prevent bacterial contamination. Dulbecco's Modified Eagle Medium (DMEM) supplemented with 10% w/w fetal bovine serum (FBS) and 1% w/w Pen-Strep is herein referred to as Treatment Medium. Following seeding of cells in the plates, the plates were spun at 300×g for 30 seconds, then equilibrated to room temperature for 30 minutes, and then deposited in a humidified tissue culture incubator maintained at 37° C. with 5% CO2.
At 24 hours after seeding of the cells, dilutions of test compound were prepared in DMSO and dissolved in Treatment Medium, to achieve a final DMSO concentration of 0.5% w/w, thereby providing the Test Compound Solution. A 25 μL aliquot of the Test Compound Solution was added to cells in the well plates. An equal volume of a solution containing DMSO and Treatment Medium was used as a negative control. Following treatment of cells with Test Compound Solution or said equal volume of a solution containing DMSO and Treatment Medium, the plates were spun at 300×g for 30 seconds, and then left in an incubator for 72 hours.
At the end of the treatment duration, cell viability was quantified with CellTiter-Glo 2.0 reagent (Promega Cat #G9243). For this purpose, plates were equilibrated to room temperature for 30 minutes, and then 25 μL of CellTiter-Glo 2.0 reagent was added to cells in the plate wells. Plates were then agitated on a shaker for two minutes at 500 rpm and subsequently incubated at room temperature for 10 minutes. Following incubation, the plates were spun at 3000×g for 30 seconds, then sealed with an optical adhesive cover, and luminescence readings were measured with an EnVision Plate Reader.
Data was normalized using zero luminescence for baseline. A four-parameter non-linear regression curve fit was applied to dose-response data in GraphPad Prism data analysis software to determine the half-maximal growth inhibitory concentration (GI50) for each test compound.

T47D cells = experiment: Cellular growth inhibition assay for T47D cells, CellTiter-Glo; assay type: cell-based, human; details: 72 hours treatment, CellTiter-Glo 2.0 cell viability
Method in brief: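 Growth inhibition as GI50, fitted with four parameters to CellTiter-Glo luminescence after 72 h of compound exposure (0.5% DMSO). Cells were T47D, grown in insulin-supplemented (0.2 units/mL) DMEM with 10% FBS and treated one day post-seeding.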

[1] = system: T-Rex 293 cell line SC3 cells lacking increased expression of androgen receptor protein; experiment: Cellular growth inhibition, T-Rex 293 SC3 cells without doxycycline, CellTiter-Glo; assay type: cell-based; details: T-Rex 293 SC3 cells not exposed to doxycycline, CellTiter-Glo 2.0
Procedure: (§1) The following types of cells were prepared for this experiment: (i) a T-Rex 293 cell line having increased expression of androgen receptor protein due to exposure to doxycycline and (ii) a T-Rex 293 cell line lacking increased expression of androgen receptor protein. Ability of the test compounds to inhibit proliferation of the foregoing cell types was evaluated according to the procedures set forth below.
(§2) The doxycycline-inducible androgen receptor protein expressing cell line was established using the following protocol: T-Rex 293 cells were purchased from Invitrogen (Cat #R71007) and transfected using Lipofectamine 2000 with the wild-type androgen receptor protein sequence cloned into the pcDNA4/TO vector. Transfected cells were selected using 400 μg/mL Zeocin (Invitrogen Cat #R25001). Following selection, single clones were raised and maintained in Dulbecco's Modified Eagle Medium (DMEM) supplemented with 10% w/w Tetracycline-free fetal bovine serum (FBS) and 250 μg/mL Zeocin. Clones were analyzed for expression of androgen receptor protein in the presence and absence of 10 ng/mL doxycycline (Sigma Cat #D9891), and a single doxycycline-inducible clone (hereinafter “SC3”) was selected for use in downstream assays.
(§3) The SC3 cells were seeded on poly-D-lysine coated, black clear-bottom 384-well plates at 2500/well, in 25 μL Phenol Red Free Dulbecco's Modified Eagle Medium (DMEM) supplemented with 10% w/w charcoal-dextran treated fetal bovine serum (FBS) and 1% w/w pen-strep, with or without 10 ng/mL doxycycline. Pen-Strep is a commercially available mixture of penicillin G and streptomycin, which is used in mammalian cell culture media to prevent bacterial contamination. Phenol Red Free Dulbecco's Modified Eagle Medium (DMEM) supplemented with 10% w/w charcoal-dextran treated fetal bovine serum (FBS) and 1% w/w pen-strep, with or without 10 ng/mL doxycycline is herein referred to as Treatment Medium. Following seeding of cells in the plates, the plates were spun at 300×g for 30 seconds, then equilibrated to room temperature for 30 minutes, and then deposited in a humidified tissue culture incubator maintained at 37° C. with 5% CO2.
(§4) At 24 hours after seeding of the cells, dilutions of test compound were prepared in DMSO and dissolved in Treatment Medium, to achieve a final DMSO concentration of 0.5% w/w, thereby providing the Test Compound Solution. A 25 μL aliquot of the Test Compound Solution was added to cells in the well plates. An equal volume of a solution containing DMSO and Treatment Medium was used as a negative control. Following treatment of cells with Test Compound Solution or said equal volume of a solution containing DMSO and Treatment Medium, the plates were spun at 300×g for 30 seconds, and then left in an incubator for 72 hours. At the end of the treatment duration, cell viability was quantified with CellTiter-Glo 2.0 reagent (Promega Cat #G9243). For this purpose, plates were equilibrated to room temperature for 30 minutes, and then 25 μL of CellTiter-Glo 2.0 reagent was added to cells in the plate wells. Plates were then agitated on a shaker for two minutes at 500 rpm and subsequently incubated at room temperature for 10 minutes. Following incubation, the plates were spun at 3000×g for 30 seconds, then sealed with an optical adhesive cover, and luminescence readings were measured with an EnVision Plate Reader. Data was normalized using zero luminescence for baseline. A four-parameter non-linear regression curve fit was applied to dose-response data in GraphPad Prism data analysis software to determine the half-maximal growth inhibitory concentration (GI50) for each test compound.

[2] = system: T-Rex 293 cell line SC3 cells having increased expression of androgen receptor protein due to exposure to doxycycline; experiment: Cellular growth inhibition, T-Rex 293 SC3 cells with doxycycline (androgen receptor induced), CellTiter-Glo; assay type: cell-based; details: 72 h, T-Rex 293 SC3 cells with 10 ng/mL doxycycline (increased androgen receptor expression)
Procedure: as §1, §2, §3, §4

Cc1sc2c(c1C)C(c1ccc(CCC[C@@H]3CCCN(c4ncc(C(=O)N[C@H]5C(C)(C)[C@H](Oc6ccc(C#N)c(Cl)c6)C5(C)C)cn4)C3)cc1)=N[C@@H](Cc1ncco1)c1nnc(C)n1-2 [Compound I-320]
GI50 (VCaP cells; Homo sapiens, VCaP, 72 h): < 500 nM | GI50 (T47D cells; Homo sapiens, T47D, 72 h): < 500 nM

Cc1sc2c(c1C)C(c1ccc(CCC[C@H]3CCCN(c4ncc(C(=O)N[C@H]5C(C)(C)[C@H](Oc6ccc(C#N)c(Cl)c6)C5(C)C)cn4)C3)cc1)=N[C@@H](Cc1ncco1)c1nnc(C)n1-2 [Compound I-321]
GI50 (VCaP cells; Homo sapiens, VCaP, 72 h): < 500 nM | GI50 (T47D cells; Homo sapiens, T47D, 72 h): < 500 nM

Cc1sc2c(c1C)C(c1ccc(CCO[C@@H]3CCCN(c4ncc(C(=O)N[C@H]5C(C)(C)[C@H](Oc6ccc(C#N)c(Cl)c6)C5(C)C)cn4)C3)cc1)=N[C@@H](Cc1ncco1)c1nnc(C)n1-2 [Compound I-322]
GI50 (VCaP cells; Homo sapiens, VCaP, 72 h): < 500 nM | GI50 (T47D cells; Homo sapiens, T47D, 72 h): < 500 nM

Cc1sc2c(c1C)C(c1ccc(CCO[C@H]3CCCN(c4ncc(C(=O)N[C@H]5C(C)(C)[C@H](Oc6ccc(C#N)c(Cl)c6)C5(C)C)cn4)C3)cc1)=N[C@@H](Cc1ncco1)c1nnc(C)n1-2 [Compound I-323]
GI50 (VCaP cells; Homo sapiens, VCaP, 72 h): < 500 nM | GI50 (T47D cells; Homo sapiens, T47D, 72 h): < 500 nM

Cc1sc2c(c1C)C(c1ccc(CC(=O)NCCc3ncc(C(=O)N[C@H]4C(C)(C)[C@H](Oc5ccc(C#N)c(Cl)c5)C4(C)C)cn3)cc1)=N[C@@H](Cc1ncco1)c1nnc(C)n1-2 [Compound I-440]
GI50 (VCaP cells; Homo sapiens, VCaP, 72 h): 500 to 1500 nM | GI50 ([1]; 72 h): > 3000 nM | GI50 (T47D cells; Homo sapiens, T47D, 72 h): 1500 to 3000 nM

Cc1sc2c(c1C)C(c1ccc(CC3CC(OC4CCN(c5ncc(C(=O)N[C@H]6C(C)(C)[C@H](Oc7ccc(C#N)c(Cl)c7)C6(C)C)cn5)CC4)C3)cc1)=N[C@@H](C)c1nnc(C)n1-2 (some centres unmarked) [Compound I-446]
GI50 (VCaP cells): 1500 to 3000 nM | GI50 ([1]; 72 hours): > 3000 nM | GI50 (T47D cells): < 500 nM

Cc1sc2c(c1C)C(c1ccc(N[C@H]3CCN(c4ncc(C(=O)N[C@H]5C(C)(C)[C@H](Oc6ccc(C#N)c(Cl)c6)C5(C)C)cn4)C3)cc1)=NC(Cc1ncco1)c1nnc(C)n1-2 (some centres unmarked) [Compound I-622]
GI50 ([1]; 72 h): < 500 nM | GI50 [2]: < 500 nM

Cc1sc2c(c1C)C(c1ccc(N[C@H]3CC[C@@H](Nc4ncc(C(=O)N[C@H]5C(C)(C)[C@H](Oc6ccc(C#N)c(Cl)c6)C5(C)C)cn4)CC3)cc1)=N[C@@H](Cc1ncco1)c1nnc(C)n1-2 [Compound I-623]
GI50 ([1]; 72 h): < 500 nM | GI50 [2]: < 500 nM

Cc1sc2c(c1C)C(c1ccc(N3CC[C@H](Nc4ncc(C(=O)N[C@H]5C(C)(C)[C@H](Oc6ccc(C#N)c(Cl)c6)C5(C)C)cn4)C3)cc1)=N[C@@H](Cc1ncco1)c1nnc(C)n1-2 [Compound I-624]
GI50 ([1]; 72 h): < 500 nM | GI50 [2]: < 500 nM

Cc1sc2c(c1C)C(c1ccc(N3CC4(CCN(c5ncc(C(=O)N[C@H]6C(C)(C)[C@H](Oc7ccc(C#N)c(Cl)c7)C6(C)C)cn5)CC4)C3)cc1)=NC(Cc1ncco1)c1nnc(C)n1-2 (some centres unmarked) [Compound I-625]
GI50 ([1]; 72 h): > 3000 nM | GI50 [2]: < 500 nM

Cc1sc2c(c1C)C(c1ccc(N3CCC(C)(Nc4ncc(C(=O)N[C@H]5C(C)(C)[C@H](Oc6ccc(C#N)c(Cl)c6)C5(C)C)cn4)CC3)cc1)=N[C@@H](Cc1ncco1)c1nnc(C)n1-2 [Compound I-626]
GI50 ([1]; 72 h): > 3000 nM | GI50 [2]: < 500 nM

Cc1sc2c(c1C)C(c1ccc(NCCC3CCN(c4ncc(C(=O)N[C@H]5C(C)(C)[C@H](Oc6ccc(C#N)c(Cl)c6)C5(C)C)cn4)CC3)cc1)=NC(Cc1ncco1)c1nnc(C)n1-2 (some centres unmarked) [Compound I-627]
GI50 ([1]; 72 h): < 500 nM | GI50 [2]: < 500 nM

Cc1sc2c(c1C)C(c1ccc(N3CC(N4CCN(c5ncc(C(=O)N[C@H]6C(C)(C)[C@H](Oc7ccc(C#N)c(Cl)c7)C6(C)C)cn5)CC4)C3)cc1)=NC(Cc1ncco1)c1nnc(C)n1-2 (some centres unmarked) [Compound I-628]
GI50 ([1]; 72 hours): > 3000 nM | GI50 [2]: < 500 nM

Cc1sc2c(c1C)C(c1ccc(NCC3CC4(C3)CN(c3ncc(C(=O)N[C@H]5C(C)(C)[C@H](Oc6ccc(C#N)c(Cl)c6)C5(C)C)cn3)C4)cc1)=N[C@@H](Cc1ncco1)c1nnc(C)n1-2 [Compound I-660]
GI50 (VCaP cells; Homo sapiens, VCaP, 72 h): < 500 nM | GI50 ([1]; 72 h): < 500 nM | GI50 (T47D cells; Homo sapiens, T47D, 72 h): < 500 nM

Cc1sc2c(c1C)C(c1ccc(NCCN3CCN(c4ncc(C(=O)N[C@H]5C(C)(C)[C@H](Oc6ccc(C#N)c(Cl)c6)C5(C)C)cn4)CC3)cc1)=NC(Cc1ncco1)c1nnc(C)n1-2 (some centres unmarked) [Compound I-661]
GI50 (VCaP cells; Homo sapiens, VCaP, 72 h): < 500 nM | GI50 ([1]; 72 h): < 500 nM

Cc1sc2c(c1C)C(c1ccc(N3CCC[C@@H](CNc4ncc(C(=O)N[C@H]5C(C)(C)[C@H](Oc6ccc(C#N)c(Cl)c6)C5(C)C)cn4)C3)cc1)=NC(Cc1ncco1)c1nnc(C)n1-2 (some centres unmarked) [Compound I-662]
GI50 (VCaP cells; Homo sapiens, VCaP, 72 h): < 500 nM | GI50 ([1]; 72 h): 500 to 1500 nM

Cc1sc2c(c1C)C(c1ccc(N[C@H]3CC[C@H](Nc4ncc(C(=O)N[C@H]5C(C)(C)[C@H](Oc6ccc(C#N)c(Cl)c6)C5(C)C)cn4)CC3)cc1)=N[C@@H](Cc1ncco1)c1nnc(C)n1-2 [Compound I-663]
GI50 (VCaP cells; Homo sapiens, VCaP, 72 h): < 500 nM | GI50 ([1]; 72 h): < 500 nM

Cc1sc2c(c1C)C(c1ccc(N3C[C@H](F)C[C@@H](Nc4ncc(C(=O)N[C@H]5C(C)(C)[C@H](Oc6ccc(C#N)c(Cl)c6)C5(C)C)cn4)C3)cc1)=NC(Cc1ncco1)c1nnc(C)n1-2 (some centres unmarked) [Compound I-664]
GI50 (VCaP cells; Homo sapiens, VCaP, 72 h): < 500 nM | GI50 ([1]; 72 h): < 500 nM

Cc1sc2c(c1C)C(c1ccc(N3C[C@H]4C[C@@H]3CN4c3ncc(C(=O)N[C@H]4C(C)(C)[C@H](Oc5ccc(C#N)c(Cl)c5)C4(C)C)cn3)cc1)=NC(Cc1ncco1)c1nnc(C)n1-2 (some centres unmarked) [Compound I-665]
GI50 (VCaP cells; Homo sapiens, VCaP, 72 h): < 500 nM | GI50 ([1]; 72 h): < 500 nM
